The values that follow come from US20250231185A1, “Coronavirus T Cell Epitopes, Megapools and Uses Thereof” (La Jolla Institute for Immunology, priority 2021, published 2025).

The first experiment relates to CD8+ T cells.
Assay: not given
The conditions noted are these: CD8R (D) megapool epitopes; dominant = recognized by 3 or more donors/different studies; cited from earlier work.
For 1810 (HLVDFQVTI) [compound 1810], the Dominant entry was “Yes (more dominant epitopes are defined by being recognized by 3 or more donors/different studies)”.
For 1791 (NTCDGTTFTY) [compound 1791], the Dominant result is listed as “Yes (more dominant epitopes are defined by being recognized by 3 or more donors/different studies)”.
1792 (FTYASALWEI) [compound 1792]: the Dominant result is “Yes (more dominant epitopes are defined by being recognized by 3 or more donors/different studies)”.
As for 1767 (NYMPYFFTL) [compound 1767], the Dominant entry is listed as “Yes (more dominant epitopes are defined by being recognized by 3 or more donors/different studies)”.
Consider 1764 (TTDPSFLGRY) [compound 1764], for which the Dominant entry is reported as “Yes (more dominant epitopes are defined by being recognized by 3 or more donors/different studies)”.
With 1786 (MPASWVMRI) [compound 1786], the Dominant result is “Yes (more dominant epitopes are defined by being recognized by 3 or more donors/different studies)”.
On to 1725 (FYAYLRKHF) [compound 1725], for which the Dominant entry was “Yes (more dominant epitopes are defined by being recognized by 3 or more donors/different studies)”.
Turning to 1688 (LSPRWYFYYL) [compound 1688], the Dominant entry was “Yes (more dominant epitopes are defined by being recognized by 3 or more donors/different studies)”.

Staying with this experiment, now noted: CD8RE megapool peptides (non-spike SARS-CoV-2 antigens); dominant epitope Yes/No; cited from earlier work.
Turning to 2914 (ATSRTLSYYK) [compound 2914], the Dominant result was “Yes (more dominant epitopes are defined by being recognized by 3 or more donors/different studies)”.
On to 2984 (KQFDTYNLW) [compound 2984], for which the Dominant entry is listed as “Yes (more dominant epitopes are defined by being recognized by 3 or more donors/different studies)”.
Turning to 3030 (ALRANSAVK) [compound 3030], the Dominant entry is on record as “Yes (more dominant epitopes are defined by being recognized by 3 or more donors/different studies)”.

Staying with this experiment, now noted: SARS-CoV-2-derived CD8 epitopes; dominant = recognized by 3 or more donors/different studies; cited from earlier work.
Regarding 558 (VLSEARQHL) [compound 558], the Dominant result is on record as “Yes (more dominant epitopes are defined by being recognized by 3 or more donors/different studies)”.
Turning to 583 (VTNNTFTLK) [compound 583], the Dominant entry is on record as “Yes (more dominant epitopes are defined by being recognized by 3 or more donors/different studies)”.

The same experiment, now with this note: SARS-CoV-2 Ag S; T cell type recognizing the epitope; cited from earlier work.
On to 1332 (NTSNQVAVLY) [compound 1332], for which the Restriction result is given as “CD8”.
As for 1438 (GVFVSNGTHW) [compound 1438], the Restriction entry was “CD8”.

The same experiment, now with this note: T cell subset (CD4 or CD8) recognizing the SARS-CoV-2-derived epitope; cited from earlier work.
With 558 (VLSEARQHL) [compound 558], the Restriction result was “CD8”.
For the substance 616 (NLYDKLVSSFL) [compound 616], the Restriction entry is “CD8”.
For the substance 673 (GEAANFCAL) [compound 673], the Restriction entry is on record as “CD8”.
Regarding 571 (ILSPLYAFA) [compound 571], the Restriction result is “CD8”.
For the substance 583 (VTNNTFTLK) [compound 583], the Restriction entry is recorded as “CD8”.

The same experiment, now with this note: T cell type (CD4 or CD8) recognizing the SARS-CoV-2 epitope; cited from earlier work.
Take 1088 (LPKGIMMNV) [compound 1088]: the Restriction result is given as “CD8”.
Consider 984 (MLRIMASL) [compound 984], for which the Restriction entry is listed as “CD8”.
On to 958 (AAISDYDYYR) [compound 958], for which the Restriction entry is given as “CD8”.
For 1030 (APTLVPQEHYV) [compound 1030], the Restriction entry is recorded as “CD8”.
For the substance 987 (MASLVLARK) [compound 987], the Restriction entry is “CD8”.
As for 1079 (FIERYKLEGY) [compound 1079], the Restriction result is given as “CD8”.
For 976 (SAKNRARTV) [compound 976], the Restriction result is “CD8”.

The test system of the next experiment is CD8+ T cells. The experiment is described as follows: Meta-analysis of published SARS-CoV-2 CD8 T cell epitope data curated in the IEDB (25 studies). The class given is cell-based, human. Conditions: CD8-restricted SARS-CoV-2 epitopes; Yes = recognized by 3 or more donors/different studies.
Consider 1233 (KSWMESEFRVY) [compound 1233], for which the Dominant entry is listed as “Yes (more dominant epitopes are defined by being recognized by 3 or more donors/different studies)”.
On the same count and under the same terms, next, 1111 (IVGVALLAVF) [compound 1111]: “Yes (more dominant epitopes are defined by being recognized by 3 or more donors/different studies)”; 1109 (IPIQASLPF) [compound 1109]: “Yes (more dominant epitopes are defined by being recognized by 3 or more donors/different studies)”.
For the substance 1297 (KLPDDFTGCV) [compound 1297], the Dominant entry is recorded as “Yes (more dominant epitopes are defined by being recognized by 3 or more donors/different studies)”.
For 1245 (FVFKNIDGY) [compound 1245], the Dominant result was “Yes (more dominant epitopes are defined by being recognized by 3 or more donors/different studies)”.
Still for that read-out and setting: next, 1152 (YYQLYSTQL) [compound 1152]: “Yes (more dominant epitopes are defined by being recognized by 3 or more donors/different studies)”; 1263 (YYVGYLQPRTF) [compound 1263]: “Yes (more dominant epitopes are defined by being recognized by 3 or more donors/different studies)”.
Consider 1176 (KLFIRQEEV) [compound 1176], for which the Dominant result was “Yes (more dominant epitopes are defined by being recognized by 3 or more donors/different studies)”.
On the same count and under the same terms, next, 1187 (IQYIDIGNY) [compound 1187]: “Yes (more dominant epitopes are defined by being recognized by 3 or more donors/different studies)”; 1225 (GVYFASTEK) [compound 1225]: “Yes (more dominant epitopes are defined by being recognized by 3 or more donors/different studies)”.
Consider 1296 (KIADYNYKL) [compound 1296], for which the Dominant entry is given as “Yes (more dominant epitopes are defined by being recognized by 3 or more donors/different studies)”.

Still in this experiment, the particulars now being: CD8S (D) Megapool, antigen S; dominant = recognized in 3 or more donors/studies.
As to 1476 (FVFKNIDGY) [compound 1476], the Dominant result is “Yes (more dominant epitopes are defined by being recognized by 3 or more donors/different studies)”.
Regarding 1493 (IGAEHVNNSY) [compound 1493], the Dominant entry was “Yes (more dominant epitopes are defined by being recognized by 3 or more donors/different studies)”.
Take 1484 (KCYGVSPTK) [compound 1484]: the Dominant result is on record as “Yes (more dominant epitopes are defined by being recognized by 3 or more donors/different studies)”.
On to 1504 (MIAQYTSAL) [compound 1504], for which the Dominant entry was “Yes (more dominant epitopes are defined by being recognized by 3 or more donors/different studies)”.
As to 1514 (VVFLHVTYV) [compound 1514], the Dominant result is reported as “Yes (more dominant epitopes are defined by being recognized by 3 or more donors/different studies)”.
Still for that read-out and setting: the same measure for 1485 (KIADYNYKL) [compound 1485]: “Yes (more dominant epitopes are defined by being recognized by 3 or more donors/different studies)”; for 1481 (YLQPRTFLL) [compound 1481]: “Yes (more dominant epitopes are defined by being recognized by 3 or more donors/different studies)”; for 1497 (SIIAYTMSL) [compound 1497]: “Yes (more dominant epitopes are defined by being recognized by 3 or more donors/different studies)”.
Take 1518 (QYIKWPWYI) [compound 1518]: the Dominant result is recorded as “Yes (more dominant epitopes are defined by being recognized by 3 or more donors/different studies)”.
Take 1488 (NYNYLYRLF) [compound 1488]: the Dominant result is listed as “Yes (more dominant epitopes are defined by being recognized by 3 or more donors/different studies)”.
Same read-out and setting: next, 1472 (GVYFASTEK) [compound 1472]: “Yes (more dominant epitopes are defined by being recognized by 3 or more donors/different studies)”; 1490 (FQPTNGVGY) [compound 1490]: “Yes (more dominant epitopes are defined by being recognized by 3 or more donors/different studies)”.

Still in this experiment, the particulars now being: CD8 epitopes; Yes = recognized by 3 or more donors/different studies.
Regarding 426 (KLLEQWNLV) [compound 426], the Dominant result is on record as “Yes (more dominant epitopes are defined by being recognized by 3 or more donors/different studies)”.
For the substance 477 (ASQRVAGDSGFAAY) [compound 477], the Dominant entry is given as “Yes (more dominant epitopes are defined by being recognized by 3 or more donors/different studies)”.
Same read-out and setting: next, 499 (KMKDLSPRW) [compound 499]: “Yes (more dominant epitopes are defined by being recognized by 3 or more donors/different studies)”; 484 (RYRIGNYKL) [compound 484]: “Yes (more dominant epitopes are defined by being recognized by 3 or more donors/different studies)”; 423 (YVYSRVKNL) [compound 423]: “Yes (more dominant epitopes are defined by being recognized by 3 or more donors/different studies)”.
Still for that read-out and setting: the same measure for 457 (SMWSFNPET) [compound 457]: “Yes (more dominant epitopes are defined by being recognized by 3 or more donors/different studies)”.

Staying with this experiment, now noted: SARS-CoV-2-derived CD8 epitopes; dominant = recognized by 3 or more donors/different studies.
On to 856 (FLNGSCGSV) [compound 856], for which the Dominant result is on record as “Yes (more dominant epitopes are defined by being recognized by 3 or more donors/different studies)”.
On the same count and under the same terms, next, 872 (FLLPSLATV) [compound 872]: “Yes (more dominant epitopes are defined by being recognized by 3 or more donors/different studies)”; 818 (RPDTRYVL) [compound 818]: “Yes (more dominant epitopes are defined by being recognized by 3 or more donors/different studies)”.
With 887 (TLGVYDYLVST) [compound 887], the Dominant result is listed as “Yes (more dominant epitopes are defined by being recognized by 3 or more donors/different studies)”.
For the substance 781 (STFNVPMEK) [compound 781], the Dominant result is given as “Yes (more dominant epitopes are defined by being recognized by 3 or more donors/different studies)”.
Consider 772 (QLMCQPILLL) [compound 772], for which the Dominant entry is recorded as “Yes (more dominant epitopes are defined by being recognized by 3 or more donors/different studies)”.
On the same count and under the same terms, next, 841 (FLLNKEMYL) [compound 841]: “Yes (more dominant epitopes are defined by being recognized by 3 or more donors/different studies)”.
Still for that read-out and setting: next, 858 (GTDLEGNFY) [compound 858]: “Yes (more dominant epitopes are defined by being recognized by 3 or more donors/different studies)”.
